Laboratory results as given in publication PMC12525168, “Targeting carA Using Optimized Antisense Peptide Nucleic Acid–Cell-Penetrating Peptide Conjugates in Acinetobacter baumannii: A Novel Antibacterial Approach” (International Journal of Molecular Sciences, 2025).

Assays:
A. baumannii ATCC 17978 [1] = test: MIC by broth microdilution (CLSI); format: cell-based, Acinetobacter baumannii; details: CAMHB with TES buffer, 37 °C, 18–20 h, at least two independent experiments in duplicate
Description: CPP–PNA conjugates were synthesized by HLB […] Co., LTD. The binding sites within A. baumannii ATCC 17978 were predicted and analyzed using Geneious Prime (version 1 February 2025), enabling precise identification of target regions for subsequent antisense PNA design. Specifically, α-PNA modifications introduced arginine, while γ-PNA modifications incorporated guanidino-lysine. The diverse CPP–PNA and α- and γ-modified PNA oligomers were generated via solid-phase peptide synthesis using benzothiazole sulfonyl and standard fluorenylmethyloxycarbonyl chemistry procedures on an automatic synthesizer (HLB-[…]). The synthesized PNA oligomers were cleaved from the solid support resin using a mixed solution containing trifluoroacetic acid. The PNA mixture separated from the solid support was purified using reverse-phase high-performance liquid chromatography, and the purity and molecular weight were determined and confirmed using high-performance liquid chromatography and matrix-assisted laser desorption/ionization time-of-flight mass spectrometry (Figures S1 and S2). The MIC of each CPP–PNA conjugate was determined using the broth microdilution method in accordance with the Clinical and Laboratory Standards Institute guidelines. A. baumannii ATCC 17978 was used as the test strain. The CPP–PNA conjugates were tested at concentrations of […], 3.125, 6.25, 12.5, 25, and 50 µM in 100 µL of cation-adjusted Mueller–Hinton broth with N-Tris (hydroxymethyl) methyl-2-aminoethanesulfonic acid buffer (CAMHB; T3462; Thermo Fisher Scientific, Waltham, MA, USA). The microdilution plates were incubated at 37 °C for 18–20 h. A minimum of two independent experiments, each performed in duplicate, were conducted to ensure reproducibility.

A. baumannii ATCC 17978 [2] = test: Bactericidal test: colony count after treatment with 50 µM CPP–PNA; format: cell-based, Acinetobacter baumannii; details: for Bactericidal activity in MBC assay (in words) / Average CFU: 50 µM CPP–PNA; for Average CFU: mean of two plates, plated 24 h; for Average CFU / MBC (CFU) in 50 µM CPP–PNA: 4 h at 37 °C; for MBC (CFU) in 50 µM CPP–PNA: 1 × 10^7 CFU/mL inoculum, 50 µL spread on Muller–Hinton agar, 24 h at 37 °C
Description: Artificially synthesized CPP–PNA (carA, […]) conjugates were used to silence carA. Briefly, carA-specific oligonucleotides were identified from the genomic sequence of A. baumannii ATCC 17978 (CP049363.1). The CPP–PNA conjugates, namely KFFK (FFK)2–PNA, KKFK (FFK)2–PNA, and KKKK (FFK)2–PNA, were synthesized by HLB […] Co., LTD. (Daejeon, Republic of Korea). These conjugates were engineered to specifically bind to the translation initiation region of carA, which includes the TTG start codon and the Shine-Dalgarno sequence (TTTGGT) crucial to ribosomal interaction.
To prepare bacterial suspensions, cultures of A. baumannii ATCC 17978 were grown until the OD600 value reached 0.8. The CPP–PNA conjugates were prepared to achieve concentrations of 50 and 0 µM in a total volume of 100 µL per well in 96-well plates. Subsequently, 10 µL of the adjusted bacterial suspension was inoculated into each well (1 × 10^7 CFU/mL). The plates were then incubated at 37 °C for 4 h. Subsequently, 50 µL of each CPP–PNA conjugate-treated bacterial suspension was spread on Muller–Hinton agar plates, with each condition distributed across two plates. The plates were subsequently incubated at 37 °C for 24 h to enable bacterial growth and colony formation.

Row | Substance | MIC (A. baumannii ATCC 17978 [1]) [µM] | Bactericidal activity in MBC assay (in words) (A. baumannii ATCC 17978 [2]) | Average CFU (A. baumannii ATCC 17978 [2]) | MBC (CFU) in 50 µM CPP–PNA (A. baumannii ATCC 17978 [2]; plate 1 of two) | MBC (CFU) in 50 µM CPP–PNA (A. baumannii ATCC 17978 [2]; plate 2 of two)
1 | Control 4 (ftsZ): KFFK(FFK)2 conjugated to PNA GAGGCCATGAC targeting ftsZ [reference compound] | 50 | – | – | – | –
2 | KFFK(FFK)2-TTACTGTTTAGAT: KFFK(FFK)2 conjugated to 13-mer PNA targeting carA stop codon (all peptide nucleic acid (PNA); KFFK(FFK)2 cell-penetrating peptide conjugated to the PNA, attachment site not given here) | 50 | – | – | – | –
3 | Control 3 (acpP): KFFK(FFK)2 conjugated to PNA TGATTTGCCAC targeting acpP [reference compound] | 25 | – | – | – | –
4 | KKKK(FFK)2-TCAAACCAAAGCT: KKKK(FFK)2 cell-penetrating peptide conjugated to 13-mer antisense PNA TCAAACCAAAGCT targeting carA (all peptide nucleic acid (PNA); KKKK(FFK)2 peptide conjugated) | – | no bactericidal activity | TNTC | TNTC | TNTC
5 | KFFK(FFK)2-TCAAACCAAAGCT: KFFK(FFK)2 cell-penetrating peptide conjugated to unmodified 13-mer antisense PNA TCAAACCAAAGCT targeting carA RBS (all peptide nucleic acid (PNA); KFFK(FFK)2 peptide conjugated) | 25 | No A. baumannii colonies were detected | 0 CFU | 0 CFU | 0 CFU
6 | KKFK(FFK)2-TCAAACCAAAGCT: KKFK(FFK)2 cell-penetrating peptide conjugated to 13-mer antisense PNA TCAAACCAAAGCT targeting carA (all peptide nucleic acid (PNA); KKFK(FFK)2 peptide conjugated) | – | – | 10.5 CFU | 7 CFU | 14 CFU
7 | Control 5 (rne): KFFK(FFK)2 conjugated to PNA ACGTTTCATGG targeting rne [reference compound] | 50 | – | – | – | –
8 | KFFK(FFK)2-CGGGGGTGCTCAA: KFFK(FFK)2 conjugated to 13-mer PNA targeting carA start codon (all peptide nucleic acid (PNA); KFFK(FFK)2 cell-penetrating peptide conjugated to the PNA, attachment site not given here) | >50 | – | – | – | –
9 | KFFK(FFK)2-TCAAA*CCA*AAGCT: KFFK(FFK)2 conjugated to γ-modified 13-mer PNA targeting carA RBS (TCAAACCAAAGCT; KFFK(FFK)2 peptide conjugate, γ-modified PNA, chemistry not fully specified) | 25 | – | – | – | –
